According to US6380196B1, “Dihydrobenzofurans” (Byk Gulden Lomberg Chemische Fabrik GmbH, priority 1997, dated 2002):
Structures can show the parent of a compound that is named as a salt.

Assays:
[1] = test system: PDE4; experiment: Inhibition of PDE 4 activity (method of Bauer and Schwabe, adapted to microtitre plates); type: biochemical
Experimental: The activity test was carried out according to the method of Bauer and Schwabe, which was adapted to microtitre plates (Naunyn-Schmiederberg's Arch. Pharmacol. 311, 193-198, 1980). In this test, the PDE reaction is carried out in the first step. In a second step, the resultant 5′-nucleotide is cleaved to the uncharged nucleoside by a snake venom 5′-nucleotidase from Crotalus Atrox. In the third step, the nucleoside is separated from the remaining charged substrate on ion exchange columns. The columns are eluted directly into minivials using 2 ml of 30 mM ammonium formate (pH 6.0), to which a further 2 ml of scintillation fluid is added for counting.
The inhibitory values determined for the compounds according to the invention follow from the following table A, in which the numbers of the compounds correspond to the numbers of the examples.

| Compound | Inhibition of PDE4 activity [measured as -loglC50 (mol/l)] [1] | melting point [°C] |
| --- | --- | --- |
| COc1ccc(C2=NN(CCO)C(=O)C3CC=CCC23)c2c1OC1(CCCC1)C2 (stereo not drawn) [Compound 17, (cis)-4-(2,3-Dihydro-7-methoxybenzofuran-2-spiro-1′-cyclopentan-4-yl-2-hydroxyethyl-4a,5,8,8a-tetrahydro-2H-phthalazin-1-one] | 8.36 | – |
| COc1ccc(C2=NN(C3CCCCCC3)C(=O)C3CCCCC23)c2c1OC1(CCCC1)C2 (stereo not drawn) [Compound 13, (cis)-4-(2,3-Dihydro-7-methoxybenzofuran-2-spiro-1′-cyclopentan-4-yl)-2-cycloheptyl-4a,5,6,7,8,8a-hexahydro-2H-phthalazin-1-one] | 9.22 | – |
| COc1ccc(C2=NN(Cc3ccncc3)C(=O)C3CCCCC23)c2c1OC1(CCCC1)C2 (stereo not drawn) [Compound 12, (cis)-4-(2,3-Dihydro-7-methoxybenzofuran-2-spiro-1′-cyclopentan-4-yl)-2-(4-pyridylmethyl)-4a,5,6,7,8,8a-hexahydro-2H-phthalazin-1-one-hydrochloride] | 8.22 | – |
| COc1ccc(C2=NNC(=O)C3CC=CCC23)c2c1OC1(CCCC1)C2 (stereo not drawn) [Compound 1, (cis)-4-(2,3-Dihydro-7-methoxybenzofuran-2-spiro-1′-cyclopentan-4-yl)-4a,5,8,8a-tetrahydro-2H-phthalazin-1-one] | 8.02 | – |
| COc1ccc(C2=NN(Cc3ccc(C(=O)O)cc3)C(=O)C3CCCCC23)c2c1OC1(CCCC1)C2 (stereo not drawn) [Compound 11, (cis)-4-(2,3-Dihydro-7-methoxybenzofuran-2-spiro-1′-cyclopentan-4-yl)-2-(4-carboxybenzyl)-4a,5,6,7,8,8a-hexahydro-2H-phthalazin-1-one] | 7.66 | – |
| COc1ccc(C2=NN(C3CCCCCC3)C(=O)[C@H]3CC=CC[C@@H]23)c2c1OC(C)(C)C2 (relative stereo) [Compound 25, (cis)-4-(2,3-Dihydro-2,2-dimethyl-7-methoxybenzofuran-4-yl)-2-cycloheptyl-4a,5,8,8a-tetrahydro-2H-phthalazin-1-one] | 9.01 | – |
| COc1ccc(C2=NN(Cc3ccccc3)C(=O)C3CC=CCC23)c2c1OC(C)(C)C2 (stereo not drawn) [Compound 26, (cis)-4-2,3-Dihydro-2,2-dimethyl-7-methoxybenzofuran-4-yl)-2-benzyl-4a,5,8,8a-tetrahydro-2H-phthalazin-1-one] | 8.72 | – |
| COc1ccc(C2=NN(C3CCCC3)C(=O)C3CC=CCC23)c2c1OC1(CCCC1)C2 (stereo not drawn) [Compound 5, (cis)-4-(2,3-Dihydro-7-methoxybenzofuran-2-spiro-1′-cyclopentane-4-yl)-2-cyclopentyl-4a,5,8,8a-tetrahydro-2H-phthalazin-1-one] | 9.22 | – |
| COc1ccc(C2=NN(CCCCn3ccnc3)C(=O)C3CC=CCC23)c2c1OC1(CCCC1)C2 (stereo not drawn) [Compound 22, (cis)-4(2,3-Dihydro-7-methoxybenzofuran-2-spiro-1′-cylopentan-4-yl)-2-[4-(imidazol-1yl)-1-butyl]-4a,5,8,8a-tetrahydro-phthalazin-1-one] | 8.82 | – |
| COc1ccc(C2=NN(Cc3ccccc3)C(=O)C3CCCCC23)c2c1OC1(CCCC1)C2 (stereo not drawn) [Compound 14, (cis)-4-(2,3-Dihydro-7-methoxybenzofuran-2-spiro-1′-cyclopentan-4-yl)-2-benzyl-4a,5,6,7,8,8a-hexahydro-2H-phthalazin-1-one] | 8.62 | – |
| COc1ccc(C2=NN(c3ccc(C(=O)O)cc3)C(=O)C3CC=CCC23)c2c1OC1(CCCC1)C2 (stereo not drawn) [Compound 24, (cis)-4-(2,3-Dihydro-7-methoxybenzofuran-2-spiro-1′-cyclopentan-4-yl)-2-(p-carboxyphenyl)-4a,5,8,8a-tetrahydro-2H-phthalazin-1-one] | 9.38 | – |
| COc1ccc(C2=NN(C3CCCCCC3)C(=O)C3CC=CCC23)c2c1OC1(CCCC1)C2 (stereo not drawn) [Compound 6, (cis)-4-(2,3-Dihydro-7-methoxybenzofuran-2-spiro-1′-cyclopentan-4-yl)-2-cycloheptyl-4a,5,8,8a-tetrahydro-2H-phthalazin-1-one] | 9.17 | – |
| COc1ccc(C2=NN(c3ccccc3)C(=O)[C@H]3CC=CC[C@@H]23)c2c1OC(C)(C)C2 (relative stereo) [Compound 27, (cis)-4-(2,3-Dihydro-2,2-dimethyl-7-methoxybenzofuran-4-yl)-2-phenyl-4a,5,8,8a-tetrahydro-2H-phthalazin-1-one] | 8.74 | – |
| COc1ccc(C2=NN(c3ccccc3)C(=O)C3CC=CCC23)c2c1OC1(CCCC1)C2 (stereo not drawn) [Compound 8, (cis)-4-(2.3-Dihydro-7-methoxybenzofuran-2-spiro-1′-cyclopentan-4-yl)-2-phenyl-4a,5,8,8a-tetrahydro-2H-phthalazin-1-one] | 8.87 | – |
| COc1ccc(C2=NNC(=O)[C@H]3CC=CC[C@@H]23)c2c1OC(C)(C)C2 (relative stereo) | – | 242 |
| COc1ccc(C2=NN(Cc3ccccc3)C(=O)C3CC=CCC23)c2c1OC1(CCCC1)C2 (stereo not drawn) [Compound 7, (cis)-4-(2,3-Dihydro-7-methoxybenzofuran-2-spiro-1′-cyclopentan-4-yl)-2-benzyl-4a,5,8,8a-tetrahydro-2H-phthalazin-1-one] | 8.93 | – |
| COc1ccc(C2=NNC(=O)C3CCCCC23)c2c1OC1(CCCC1)C2 [Compound 9, (4aS, 8aR)-4-(2,3-Dihydro-7-methoxybenzofuran-2-spiro-1′-cyclopentan-4-yl)-4a,5,6,7,8,8a-hexahydro-2H-phthalazin-1-one] | 7.80 | – |
